US20210069295A1, “GALECTINS CONTROL MTOR IN RESPONSE TO ENDOMEMBRANE DAMAGE AND PROVIDE A MECHANISM AND TARGET FOR THE TREATMENT OF AUTOPHAGY-RELATED DISEASES” (STC. UNM, priority 2017, published 2021)
Peptide text beside a SMILES is read from it.

Tested on: LC3
Assay: Autophagy induction (LC3-II levels and LC3 puncta) in HEK293T cells
Type: cell-based
Settings: SLC38A9 knockout and wild type HEK293T, 100 μM GPN
Description: (A) Analysis of mTOR activity and autophagy induction in HEK293T cells (WT, wild type) and SLC38A9 knockout (SLC38A9 KO) HEK293T derivatives treated with 100 μM GPN in full medium for the indicated time points. mTOR activity was monitored by immunoblotting analysis of S6K1 phosphorylation at T389 (p-T389). Autophagy induction was monitored by immunoblotting analysis of LC3-II. (B) Analysis of autophagy induction in SLC38A9 KO cells treated with GPN. WT and SLC38A9-KO (SLCKO) HEK293T cells were treated with 100 μM GPN in full medium for 30 min, and LC3 puncta were quantified by HC. […] Data, means±SEM, n≥3 independent experiments (500 primary objects counted per well; ≥ 5 wells/sample per each experiment), **p<0.01, ANOVA. […] WT and SLC38A9 KO HEK293T cells were treated with 100 μM GPN for 1 h followed by 1 h washout in full medium. mTOR activity was monitored by immunoblotting analysis of S6K1 p-T389 and ULK1 p-S757 phosphorylation. Autophagy induction was monitored by immunoblotting analysis of LC3-II. […] Control and FLAG-SLC38A9 overexpressing HEK293T cells were treated with 100 μM GPN in full medium for 30 min, and LC3 puncta were quantified by HC. […] Data, means±SEM, n≥3 independent experiments (500 primary objects counted per well; ≥5 wells/sample per each experiment), **p<0.01, ANOVA. […]

NCC(=O)N[C@@H](Cc1ccccc1)C(=O)Nc1ccc2ccccc2c1 [GPN, glycyl-L-phenylalanine 2-naphththylamide] (HELM PEPTIDE1{G.F.[c1ccc2cc(N[*:1])ccc2c1]}$$$$V2.0)
LC3-II levels and LC3 puncta: increased robustly
